From US10233186B2, “Inhibitors of activin receptor-like kinase” (BLUEPRINT MEDICINES CORPORATION, priority 2016, dated 2019)

How the values were obtained:
human ALK2 R206H = target: T1, human ALK2 R206H (Homo sapiens, UniProt Q04771, R206H); experiment: Cell-based ALK2-R206H cell activity assay (Smad1-Ser463/Ser465 phosphorylation by AlphaLISA in HEK293-ALK2-R206H cells); details: read-out: Cell Line (Cell Assay IC50)
T1 construct: expressed in transfected cells; host or cells: HEK293 (ATCC CRL1573), lentivirus transduction, blasticidin selection
T1 sequence (Q04771 21-509 R206H): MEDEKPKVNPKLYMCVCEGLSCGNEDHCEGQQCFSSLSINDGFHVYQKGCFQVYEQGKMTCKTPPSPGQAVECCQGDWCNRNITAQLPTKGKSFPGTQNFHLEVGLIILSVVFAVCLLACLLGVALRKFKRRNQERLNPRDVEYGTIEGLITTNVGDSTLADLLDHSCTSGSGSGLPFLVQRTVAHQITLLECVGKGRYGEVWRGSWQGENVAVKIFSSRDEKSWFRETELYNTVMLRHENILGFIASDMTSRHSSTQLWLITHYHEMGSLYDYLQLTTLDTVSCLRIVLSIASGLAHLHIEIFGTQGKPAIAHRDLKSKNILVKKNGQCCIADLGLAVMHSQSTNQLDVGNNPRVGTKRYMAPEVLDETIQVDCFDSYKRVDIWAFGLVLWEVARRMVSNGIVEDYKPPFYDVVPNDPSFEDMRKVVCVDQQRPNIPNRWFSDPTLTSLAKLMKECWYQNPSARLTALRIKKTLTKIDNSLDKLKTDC
Summary of the method: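 Stable HEK293 cells expressing C-terminally FLAG-tagged human ALK2 R206H (lentiviral, blasticidin-selected) were treated with compounds in 10-point, 3-fold dilutions from 10 μM or 1 μM top, in duplicate. Smad1 Ser463/Ser465 phosphorylation was read by AlphaLISA.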

[1] = target: T2, ALK2 R206H (GST-tagged mutant ALK2) (Homo sapiens, UniProt Q04771, R206H); experiment: ALK binding assay (LANTHASCREEN TR-FRET competitive binding, displacement of Kinase Tracer 178); details: ALK2 R206H, LANTHASCREEN TR-FRET competitive binding; read-out: Binding Assay (IC50)
T2 construct: purchased Carna Bioscience or ThermoFisher 09-148 or PV6232
T2 sequence (Q04771 21-509 R206H): T1 sequence (Q04771 21-509 R206H)

| Structure (SMILES) | IC50 (human ALK2 R206H) | IC50 [1] |
| --- | --- | --- |
| CCNC(=O)N1CCN(c2ccnn3cc(-c4ccc([C@@]5(OCC)CCCN(C(C)C)C5)cc4)cc23)CC1 [Compound 674] | < 100 nM | < 10 nM |
| CCNC(=O)N1CCN(c2ccnn3cc(-c4ccc(C5(OCC)CCN(C(C)C)CC5)cc4)cc23)CC1 [Compound 675] | < 100 nM | < 10 nM |
| CCO[C@]1(c2ccc(-c3cc4c(N5CCN(C(=O)NC(C)C)CC5)ccnn4c3)cc2)CCN(C(C)C)C1 [Compound 676] | < 100 nM | < 10 nM |
| CCO[C@@]1(c2ccc(-c3cc4c(N5CCN(C(=O)NC(C)C)CC5)ccnn4c3)cc2)CCN(C(C)C)C1 [Compound 677] | < 100 nM | < 10 nM |
| CC(C)N1CC[C@H](O)[C@@H](c2ccc(-c3cc4c(N5CCN(C(=O)OC6COC6)CC5)ccnn4c3)cc2)C1 [Compound 678] | < 100 nM | < 10 nM |
| CC(C)N1CC[C@@H](O)[C@H](c2ccc(-c3cc4c(N5CCN(C(=O)OC6COC6)CC5)ccnn4c3)cc2)C1 [Compound 679] | < 100 nM | < 10 nM |
| COC1(c2ccc(-c3cc4c(N5CCN(C(=O)C6CC6)CC5)ccnn4c3)cc2F)CCN(C(C)C)CC1 [Compound 680] | < 100 nM | < 10 nM |
| COC1(c2ccc(-c3cc4c(N5CCN(C(=O)[C@H]6C[C@@H]6F)CC5)ccnn4c3)cc2)CCN(C(C)C)CC1 [Compound 681] | < 100 nM | < 10 nM |
| COC1(c2ccc(-c3cc4c(N5CCN(C(=O)C6CC6)CC5)ccnn4c3)c(F)c2)CCN(C(C)C)CC1 [Compound 682] | < 100 nM | < 10 nM |
| CO[C@]1(c2ccc(-c3cc4c(N5CCN(C(=O)C6CC6)CC5)ccnn4c3)cc2F)CCCN(C(C)C)C1 [Compound 683] | < 100 nM | < 10 nM |
| CO[C@@]1(c2ccc(-c3cc4c(N5CCN(C(=O)C6CC6)CC5)ccnn4c3)cc2F)CCCN(C(C)C)C1 [Compound 684] | < 100 nM | < 10 nM |
| COC1(c2ccc(-c3cc4c(N5CCN(C(=O)OC(C)C)CC5)ccnn4c3)cc2)CCN(C(C)C)CC1 [Compound 685] | < 100 nM | < 10 nM |
| CO[C@@]1(c2ccc(-c3cc4c(N5CCN(C(=O)NC(C)C)CC5)ccnn4c3)nc2)CCCN(C(C)C)C1 [Compound 686] | < 100 nM | < 10 nM |
| CO[C@]1(c2ccc(-c3cc4c(N5CCN(C(=O)NC(C)C)CC5)ccnn4c3)nc2)CCCN(C(C)C)C1 [Compound 687] | < 100 nM | < 10 nM |
| COC1(c2ccc(-c3cc4c(N5CCN(C(=O)NC(C)C)CC5)ccnn4c3)nc2)CCN(C(C)C)CC1 [Compound 688] | < 100 nM | < 10 nM |
| COC1(c2cnc(-c3cc4c(N5CCN(C(=O)C6CC6)CC5)ccnn4c3)c(F)c2)CCN(C(C)C)CC1 [Compound 689] | 100 to 500 nM | < 10 nM |
| CC(C)N1CCC[C@@](F)(c2ccc(-c3cc4c(N5CCN(C(=O)OC6COC6)CC5)ccnn4c3)cc2)C1 [Compound 690] | < 100 nM | < 10 nM |
| CC(C)N1CCC[C@](F)(c2ccc(-c3cc4c(N5CCN(C(=O)OC6COC6)CC5)ccnn4c3)cc2)C1 [Compound 691] | < 100 nM | < 10 nM |
| CC(C)N1CCC[C@@H](c2ccc(-c3cc4c(N5CCN(C(=O)OC6COC6)CC5)ccnn4c3)cc2F)C1 [Compound 692] | < 100 nM | < 10 nM |
| CC(C)N1CCC[C@H](c2ccc(-c3cc4c(N5CCN(C(=O)OC6COC6)CC5)ccnn4c3)cc2F)C1 [Compound 693] | < 100 nM | < 10 nM |
| CC(C)N1CCC(c2ccc(-c3cc4c(N5CCN(C(=O)OC6COC6)CC5)ccnn4c3)c(F)c2)CC1 [Compound 694] | < 100 nM | < 10 nM |

| Structure (SMILES) | IC50 (human ALK2 R206H) | IC50 [1] |
| --- | --- | --- |
| CC(C)N1CCC[C@@](F)(c2ccc(-c3cc4c(N5CCN(C(=O)OC6COC6)CC5)ccnn4c3)nc2)C1 [Compound 695] | < 100 nM | < 10 nM |
| CC(C)N1CCC[C@](F)(c2ccc(-c3cc4c(N5CCN(C(=O)OC6COC6)CC5)ccnn4c3)nc2)C1 [Compound 696] | < 100 nM | < 10 nM |
| CCNC(=O)N1CCN(c2ccnn3cc(-c4ccc(C5(OC)CCN(C(C)C)CC5)c(F)c4)cc23)CC1 [Compound 697] | < 100 nM | < 10 nM |
| CCNC(=O)N1CCN(c2ccnn3cc(-c4ccc([C@@]5(OC)CCCN(C(C)C)C5)c(F)c4)cc23)CC1 [Compound 698] | < 100 nM | < 10 nM |
| CCNC(=O)N1CCN(c2ccnn3cc(-c4ccc([C@]5(OC)CCCN(C(C)C)C5)c(F)c4)cc23)CC1 [Compound 699] | < 100 nM | < 10 nM |
| CCOC(=O)N1CCN(c2ccnn3cc(-c4ccc(C5(OC)CCN(C(C)C)CC5)cc4F)cc23)CC1 [Compound 701, ethyl 4-(6-(2-fluoro-4-(1-isopropyl-4-methoxypiperidin-4-yl)phenyl)pyrrolo[1,2-b]pyridazin-4-yl)piperazine-1-carboxylate] | < 100 nM | < 10 nM |
| CC(C)N1CC[C@@H](c2ccc(-c3cc4c(N5CCN(C(=O)[C@H]6CC[C@H](C#N)CC6)CC5)ccnn4c3)nc2)C1 [Compound 702] | < 100 nM | < 10 nM |
| CC(C)N1CC[C@H](c2ccc(-c3cc4c(N5CCN(C(=O)[C@H]6CC[C@H](C#N)CC6)CC5)ccnn4c3)nc2)C1 [Compound 703] | < 100 nM | < 10 nM |
| CC(C)N1CCC(c2ccc(-c3cc4c(N5CCN(C(=O)OC6CC(C#N)C6)CC5)ccnn4c3)cc2)CC1 (stereo not shown) [Compound 704] | < 100 nM | < 10 nM |
| COC1(c2ccc(-c3cc4c(N5CCN(C(=O)[C@H]6C[C@@H]6C#N)CC5)ccnn4c3)cc2)CCN(C(C)C)CC1 [Compound 705] | < 100 nM | < 10 nM |
| CC(C)N1CC(O)(c2ccc(-c3cc4c(N5CCN(C(=O)C6CCC(C#N)CC6)CC5)ccnn4c3)cc2)C1 (stereo not shown) [Compound 706] | < 100 nM | < 10 nM |
| CC(C)N1CCC(c2ccc(-c3cc4c(N5CCN(C(=O)NCC(F)(F)F)CC5)ccnn4c3)cc2)CC1 [Compound 708] | < 100 nM | < 10 nM |
| CC(C)N1CCC(c2ccc(-c3cc4c(N5CCN(C(=O)OC6CCOCC6)CC5)ccnn4c3)cc2)CC1 [Compound 709] | 100 to 500 nM | < 10 nM |
| COCC(C)N1CCC(OC)(c2ccc(-c3cc4c(N5CCN(C(=O)C6CC6)CC5)ccnn4c3)nc2)CC1 (stereo not shown) [Compound 710] | < 100 nM | < 10 nM |
| COC[C@H](C)N1CCC(OC)(c2ccc(-c3cc4c(N5CCN(C(=O)C6CC6)CC5)ccnn4c3)nc2)CC1 [Compound 711] | < 100 nM | < 10 nM |
| CCOC1(c2ccc(-c3cc4c(N5CCN(C(=O)NC(C)C)CC5)ccnn4c3)cc2)CCN(C(C)C)CC1 [Compound 712] | < 100 nM | < 10 nM |
| COC1(c2ccc(-c3cc4c(N5CCN(C(=O)OC6COC6)CC5)ccnn4c3)cc2)CCN(C(C)C)CC1 [Compound 713] | < 100 nM | < 10 nM |
| COC1(c2ccc(-c3cc4c(N5CCN(C(=O)NC(C)C)CC5)ccnn4c3)nc2)CCN(C2COC2)CC1 [Compound 714] | < 100 nM | < 10 nM |
| CCOC1(c2ccc(-c3cc4c(N5CCN(C(=O)NC(C)C)CC5)ccnn4c3)nc2)CCN(C(C)C)CC1 [Compound 715] | < 100 nM | < 10 nM |
| CCO[C@@]1(c2ccc(-c3cc4c(N5CCN(C(=O)NC(C)C)CC5)ccnn4c3)nc2)CCCN(C(C)C)C1 [Compound 716] | < 100 nM | < 10 nM |
